This note sets out measurements from patent EP4799619A1, “COMPOUND TARGETING EGR-1 AND USE THEREOF FOR TREATMENT OF ATOPIC DERMATITIS” (AgeraMedi, Inc., priority 2023, dated 2025).

One test concerns IL-1β. The experiment in a line: RT-PCR of EGR-1 target gene mRNA in TNFα-stimulated HaCaT cells: IL-1β. As to conditions: 0, 5, 10, and 20 µM for 30 minutes, then TNFα 10 ng/mL for 12 hours, FIG. 14. The class given is cell-based, human. As to the method:
(§1) To determine whether the compounds of the present invention (Compounds 21, 23, and 25) inhibit expression of TSLP, IL-1β, and IL-6 genes, which are EGR-1 target genes playing a key role in atopic dermatitis exacerbation, the inhibitory effect of the compounds on mRNA expression of an EGR-1 target gene TSLP was evaluated by reverse transcription-polymerase chain reaction (RT-PCR) in HaCaT keratinocyte cells.
(§2) Specifically, HaCaT keratinocyte cells (purchased from Cell Lines Service, Eppelheim, Germany) were passaged at a seeding density of 1x10^6 cells per 100 mm cell culture dish in Dulbecco's modified Eagle's medium (Invitrogen Life Technologies) containing 10% fetal bovine serum (Invitrogen Life Technologies) and antibiotic-antifungal agent mix solution (Invitrogen Life Technologies), once every two days, and cultured at 37 °C in a 5% CO2 incubator.
(§3) HaCaT cells were treated with the compounds of the present invention (Compound 21, Compound 23, and Compound 25) at concentrations of 0, 5, 10, and 20 µM, respectively, for 30 minutes, followed by treatment with TNFα in a concentration of 10 ng/mL for 12 hours, after which the cells were harvested. Total RNA was extracted using TRIzol RNA isolation reagents (TRIzol Life Technologies Korea). A total of 0.5 µg of total RNA was reverse transcribed to synthesize complementary DNA (cDNA) according to the method recommended by the manufacturer using an iScript cDNA synthesis kit (Bio-Rad, Hercules, Calif., U.S.A.). PCR was performed using 0.0125 µg of double-stranded cDNA.
(§4) Glyceraldehyde-3-phosphate dehydrogenase (GAPDH), a housekeeping gene, was used as the control group. The double-stranded cDNA was denatured at 95 °C for 5 minutes and then subjected to cycles of reaction at 94 °C for 1 minute, 65 °C for 2 minutes, and 70 °C for 1 minute, repeated 30 times. The final product of PCR was electrophoresed on 1% agarose gel, stained with ethidium bromide (EtBr), and confirmed.

The next test concerns IL-6. The experiment in a line: RT-PCR of EGR-1 target gene mRNA in TNFα-stimulated HaCaT cells: IL-6. Format: cell-based, human. The settings on record: 0, 5, 10, and 20 µM for 30 minutes, then TNFα 10 ng/mL for 12 hours, FIG. 14. Here is the method:
as §1, §2, §3, §4

In the next test the test system is TSLP. The experiment in a line: RT-PCR of EGR-1 target gene mRNA in TNFα-stimulated HaCaT cells: TSLP. The class given is cell-based, human. As to conditions: 0, 5, 10, and 20 µM for 30 minutes, then TNFα 10 ng/mL for 12 hours, FIG. 14. Here is the method: as §1, §2, §3, §4
For test [1], the system named is animal model of atopic dermatitis. The experiment in a line: DNCB-induced animal model of atopic dermatitis, topical application. The settings on record: 0.1% applied to ear; for epidermal thickness / dermal thickness: day 22, H&E staining; for epidermal thickness: normal 24.47±2.353, DNCB only 37.27±4.393; for dermal thickness: normal 143.2±19.61, DNCB only 197.5±17.83; for expression of filaggrin / expression of TSLP: immunofluorescence of skin tissue; for expression of filaggrin: FIG. 17B; for expression of TSLP: compared to positive control group, FIG. 17A; for expression of MPO (neutrophil marker) / expression of F4/80 (macrophage marker): immunohistochemistry; for expression of MPO (neutrophil marker): FIG. 16C; for expression of F4/80 (macrophage marker): FIG. 16D; for mast cell infiltration / number of mast cells infiltrated: toluidine blue staining; for mast cell infiltration: compared to the positive control group, FIG. 16A; for number of mast cells infiltrated: normal 11±3, DNCB 38±6. The class given is in vivo, BALB/c mice.

Test [2] has as its target T1, EGR-1 (Homo sapiens, UniProt P18146). The experiment in a line: EGR-1 DNA binding activity assay (EDBA). More on the design: made in house. The settings on record: EGR-1 DNA binding inhibitory activity; EGR-1 overexpressing cell lysate; absorbance at 450 nm; compound concentration not given. As to the method:
In this experiment, the inhibitory effect of the compounds of the present invention on EGR-1 binding activity was evaluated using an EGR-1 DNA binding activity assay (EDBA).
Single-stranded sense and antisense oligonucleotides of the following EGR-1 binding sequence (EBS) were prepared by outsourcing to Bioneer Co., Ltd. (Daejeon, Korea). In this case, the 5'-end of the sense oligonucleotide was labeled with biotin. The sense and antisense oligonucleotides were heated at 95 °C for 5 minutes and then left overnight at room temperature to hybridize the sense and antisense oligonucleotides. Hereinafter, the hybridized sense and antisense oligonucleotides are referred to as biotin-EBS. • Sense sequence: biotin-5'-[…]-3' • Antisense sequence: 5'-[…]-3'
Avidin protein was coated on a 96-well plate (purchased from Thermo Fisher Scientific), and biotin-EBS was added to the plate at a concentration of 0.5 pmol/50 µL/well, followed by reaction at 37 °C for 1 hour to allow biotin-EBS oligonucleotide to be attached to the plate. After washing three times with phosphate buffer saline containing 0.05% Tween 20 (PBS/Tween 20) to remove unattached biotin-EBS oligonucleotides, 200 µL of PBS/Tween 20 solution containing 2% bovine serum albumin (BSA) was added to each well, followed by reaction at 37 °C for 1 hour to block the surface of the plate where no oligonucleotide was attached.
The solution containing the sample compound and the EGR-1 protein was added to the biotin-EBS oligonucleotide coated plate prepared in step (2).
The compound sample (1 µL) was reacted with the EGR-1 overexpressing cell lysate containing 10 mM Tris, pH 7.5, 50 mM KCl, 2% BSA and 8% glycerol at room temperature for 30 minutes, and then added to a reaction well coated with biotin-EBS and further reacted at room temperature for one hour. After washing three times with PBS/Tween 20 solution, an EGR-1 antibody was added to the PBS solution supplemented with 2% BSA and 5 mM NaCl in an amount of 50 µL per each well. The mixture was incubated at room temperature for one hour, washed three times with PBS/Tween 20 solution, and then treated with horseradish peroxidase-conjugated secondary antibody (Goat anti-rabbit IgG antibody, Cell Signaling Technology company, Danvers, Mass., USA) diluted by 1:1000 at room temperature for one hour. After washing five times with PBS/Tween 20 solution, a substrate tetramethylbenzidine solution was added to each well in an amount of 50 µL. After reacting for 5 minutes, the reaction was stopped by adding 100 µL of 2 N sulfuric acid solution. The DNA binding inhibitory activity of EGR-1 was measured by absorbance at 450 nm according to Equation 1 below. EGR-1 DNA binding inhibitory activity (%) = 100−{(As/Ap)×100} [formula]
As: absorbance of a sample prepared by reacting an EGR-1-overexpressing cell lysate with the compound.
Ap: absorbance of the sample treated only with EGR-1-overexpressing cell lysate.

For test [3], the target named is T1, EGR-1. The experiment in a line: Electrophoretic mobility shift assay (EMSA) of EGR-1 DNA binding. As to conditions: EGR-1 overexpressing Sf21 cell extract, biotin-labeled probe; FIG. 13. More on the design: made in house; host or cells: Sf21 insect cells (crude cell extract). As to the method: When a nucleic acid and a protein are bound to each other, the complex of the nucleic acid and the protein moves more slowly than the nucleic acid alone, so that in an EMSA, a band of the nucleic acid bound to the protein appears higher than a band of only the nucleic acid.
In detail, the protein-DNA binding was analyzed by purchasing a LightShift Chemiluminescence EMSA kit (ThermoFisher Scientific, Waltham, MA, USA). The probe sequence for EGR-1 was synthesized by Macrogen company (Seoul, Korea) by ordering a deoxynucleotide labeled with biotin at the EGR-1 binding sequence (5'-biotin-AGAGTGTGTCTCCTTCGCACACATC-3'). The EGR-1 protein used in the experiment was an Sf21 insect cell extract overexpressing human EGR-1 protein as described in Yeo et al. [Journal of Investigative Dermatology 2021; 141:1851-1855]. Wild-type Sf21 cell extract was used as a negative control. After reacting 3 µg of EGR-1 overexpressing Sf21 cell extract, 1 µl of the compound of the present invention at a concentration of 20 mM, 50 fmol of the biotin-labeled EGR-1 binding deoxyoligonucleotide probe, and 1 µg poly(dI-dC) (Amersham Pharmacia Biotech Inc) for 20 minutes, electrophoresis was performed on a 6% non-denaturing polyacrylamide gel. The electrophoresed sample was transferred to a nylon membrane (Immobilon-Ny+ Transfer membrane, Millipore) and soaked in 5% skim milk solution for 30 minutes. Then, horseradish peroxidase-conjugated streptavidin was added and reacted for 15 minutes, and after washing unbound proteins from the membrane, the EGR-1-DNA complex was detected on X-ray film using an enhanced chemiluminescence (ECL) detection system (ThermoFisher Scientific). The intensity of the EGR-1-DNA complex band was analyzed using the ImageJ program (National Institute of Health, USA), and the intensity of the sample without the compound was set to 100%, and relative intensities were measured.

Each structure is given as a SMILES string.

T1 sequence (P18146 whole entry): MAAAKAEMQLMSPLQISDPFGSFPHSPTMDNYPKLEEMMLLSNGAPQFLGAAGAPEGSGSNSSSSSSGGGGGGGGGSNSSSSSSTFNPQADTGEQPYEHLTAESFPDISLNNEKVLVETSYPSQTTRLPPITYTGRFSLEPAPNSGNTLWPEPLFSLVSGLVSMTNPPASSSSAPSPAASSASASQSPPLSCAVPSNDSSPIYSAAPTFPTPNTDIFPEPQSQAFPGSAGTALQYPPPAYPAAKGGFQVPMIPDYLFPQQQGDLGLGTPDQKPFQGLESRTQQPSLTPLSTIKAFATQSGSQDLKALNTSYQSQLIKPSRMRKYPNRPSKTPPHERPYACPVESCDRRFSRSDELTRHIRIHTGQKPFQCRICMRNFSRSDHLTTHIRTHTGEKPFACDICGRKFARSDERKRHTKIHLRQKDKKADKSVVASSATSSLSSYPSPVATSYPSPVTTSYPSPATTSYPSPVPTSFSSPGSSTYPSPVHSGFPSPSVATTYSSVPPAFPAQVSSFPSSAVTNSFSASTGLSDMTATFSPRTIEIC

Consider `O=C1Nc2c(F)cccc2/C1=N/NC(=S)Nc1ccc(C(F)(F)F)cc1` [Compound 21, (Z)-2-(7-fluoro-2-oxoindolin-3-ylidene)-N-(4-(trifluoromethyl)phenyl)hydrazinethioamide], for which, in the test with IL-1β, the “expression level of IL-1β mRNA” value is listed as “decreased dose-dependently”. Also, the “expression level of IL-6 mRNA” value with IL-6 was “decreased dose-dependently”. The “expression level of TSLP mRNA” value in the test with TSLP was “decreased dose-dependently”. Also, in test [1], the epidermal thickness worked out at 25.22±2.993 µm, the dermal thickness is 163.4±7.905 µm, the expression of filaggrin result was “recovered to a level similar to normal tissue” and the “expression of TSLP” value is listed as “significantly decreased”. In addition, in test [1], the “expression of MPO (neutrophil marker)” value was “decreased similar to normal tissue”, the “expression of F4/80 (macrophage marker)” value is on record as “decreased similar to normal tissue”, the mast cell infiltration entry is listed as “significantly reduced” and the “number of mast cells infiltrated” value was 18±2 per 2.5 cm^2. Further, the macroscopic skin condition result in test [1] (day 22, FIG. 15B) was “significant improvement in skin condition”. Further, on EGR-1 [2], the “Inhibition Rate (%)” value turned out to be 70.20%. On EGR-1 [3], the “DNA binding of EGR-1 (EGR-1-DNA complex band)” value is reported as “inhibited DNA binding of EGR-1 in a concentration-dependent manner”.

In the case of `Cc1ccc2c(c1)/C(=N/NC(=S)Nc1ccc(C#N)cc1)C(=O)N2` [Compound 71, (Z)-N-(4-cyanophenyl)-2-(5-methyl-2-oxoindolin-3-ylidene)hydrazinethioamide], on EGR-1 [2], the “Inhibition Rate (%)” value is 29.93%.

For the compound `Cc1ccc2c(c1)/C(=N/NC(=S)Nc1ccccc1)C(=O)N2` [Compound 72, (Z)-2-(5-methyl-2-oxoindolin-3-ylidene)-N-phenylhydrazinethioamide], at EGR-1 [2], the “Inhibition Rate (%)” value was 19.57%.

For `CCNC(=S)N/N=C1\C(=O)Nc2ccc(C)cc21` [Compound 73, (Z)-N-ethyl-2-(5-methyl-2-oxoindolin-3-ylidene)hydrazinethioamide], the “Inhibition Rate (%)” value on EGR-1 [2] is 29.80%.

As for `Cc1ccc2c(c1)/C(=N/NC(=S)NCc1ccccc1)C(=O)N2` [Compound 74, (Z)-N-benzyl-2-(5-methyl-2-oxoindolin-3-ylidene)hydrazinethioamide], the “Inhibition Rate (%)” value on EGR-1 [2] stood at 40.60%.

For the compound `Cc1cccc(NC(=S)N/N=C2\C(=O)Nc3ccc(C)cc32)c1` [Compound 75, (Z)-2-(5-methyl-2-oxoindolin-3-ylidene)-N-(m-tolyl)hydrazinethioamide], the “Inhibition Rate (%)” value at EGR-1 [2] turned out to be 39.27%.

`O=C1Nc2ccc(OC(F)(F)F)cc2/C1=N/NC(=S)Nc1ccccc1` [Compound 76, (Z)-2-(2-oxo-5-(trifluoromethoxy)indolin-3-ylidene)-N-phenylhydrazinethioamide]: the “Inhibition Rate (%)” value at EGR-1 [2] came out at 17.23%.

For the compound `O=C1Nc2ccc(OC(F)(F)F)cc2/C1=N/NC(=S)Nc1cccc([N+](=O)[O-])c1` [Compound 77, (Z)-N-(3-nitrophenyl)-2-(2-oxo-5-(trifluoromethoxy)indolin-3-ylidene)hydrazinethioamide], the “Inhibition Rate (%)” value on EGR-1 [2] was 37.37%.

Turning to `O=C1Nc2ccc(OC(F)(F)F)cc2/C1=N/NC(=S)Nc1ccc(F)cc1` [Compound 78, (Z)-N-(4-fluorophenyl)-2-(2-oxo-5-(trifluoromethoxy)indolin-3-ylidene)hydrazinethioamide], the “Inhibition Rate (%)” value at EGR-1 [2] was determined as 33.93%.

For `O=C1Nc2ccc(OC(F)(F)F)cc2/C1=N/NC(=S)Nc1ccc(Br)cc1` [Compound 79, (Z)-N-(4-bromophenyl)-2-(2-oxo-5-(trifluoromethoxy)indolin-3-ylidene)hydrazinethioamide], on EGR-1 [2], the “Inhibition Rate (%)” value was 42.27%.

In the case of `C[C@@H]1CCN(C(=O)CC#N)C[C@@H]1N(C)c1ncnc2[nH]ccc12` [tofacitinib, Tofacitinib, reference compound], in test [1], the epidermal thickness was found to be 27.09±1.719 µm, the dermal thickness was found to be 154.5±11.32 µm, the expression of filaggrin entry is recorded as “recovered to a level similar to normal tissue” and the “expression of TSLP” value is “significantly decreased”. Further, in test [1], the “expression of MPO (neutrophil marker)” value is recorded as “decreased similar to normal tissue”, the “expression of F4/80 (macrophage marker)” value is “decreased similar to normal tissue”, the mast cell infiltration entry is “significantly reduced” and the “number of mast cells infiltrated” value stood at 14±5 per 2.5 cm^2.
